Assay results published in patent US20190224243A1 (MUSC Foundation for Research Development, priority 2018, published 2019).
Ends that are not written are not given here.

What was measured:
animal model for ILD = conditions: cited from earlier work
mice = mice receiving CSD treatment; cited from earlier work
bleomycin-treated mice [1] = test: bleomycin minipump mouse model, lung fibrosis (Ashcroft score, ASMA and HSP47 IHC); format: in vivo, C57BL/6 mice
From the text: (§1) To create a mouse model for autologous MSC treatment, adipose-derived MSCs were isolated from C57/BL6 mice treated with bleomycin, expanded in vitro, then injected systemically via the retro-orbital sinus or subcutaneously into host C57/BL6 mice that had been treated with bleomycin.
The Pump Model (Lee R. et al., 2014, Am. J. Physio. Lung Cell. Mol. Physio. 306:L736-748) is used both to generate MSC donors and host mice receiving MSC therapy. Briefly; under isoflurane anesthesia, mini-osmotic pumps (ALZET 1007D; DURECT Corporation, Cupertino, Calif.) containing 100 μl of bleomycin (67 U/kg) or saline are implanted posterior to the scapulae of 8-10 week old C57BL/6 mice. Pumps deliver 0.5 μl/h for 7 days, then are removed by day 10 per the manufacturer's instructions.
Mice were treated with bleomycin or vehicle using osmotic minipumps (Lee et al., 2014, Am J Physiol Lung Cell Mol Physiol, 306:L736-L748). […] Tissue morphology was quantified by the Ashcroft Method (Ashcroft et al., 1988, J Clin Pathol, 41:467-70). […]
On day 24, under anesthesia the rib cage was opened, mice systemically perfused via the left ventricle with PBS, then further perfused with Z-Fix (Anatech). […] Lung tissue morphology was evaluated by the Ashcroft Method (Ashcroft T. et al., 1988, J. Clin. Pathol. 41:467-470). Skin tissue morphology was evaluated in terms of the thickness of the dermis and the subdermal adipose layer. […]

Healthy AT MSCs = test: ASMA staining (IHC) of Healthy AT MSCs treated with CSD, scrambled CSD and TGFβ; format: cell-based, human
From the text: Human MSCs were derived from abdominal fat tissue. SSc ILD and SSc No ILD MSCs are a generous gift from Dr. Del Papa (Milan, Italy). Healthy human MSCs are from Dr. Del Papa and from Lonza. Human MSCs were maintained in the medium previously described (Capelli C. et al., 2017, Cell Transplant. 26:841-854). Early passage cells (passage 1 to 3) were used in all experiments except when late passage cells (passage 5) were specifically used in FIG. 1F.
To induce fibrogenic differentiation in healthy human and mouse MSCs, cells were incubated for 10 days in Maintenance Medium supplemented with TGFβ (10 ng/ml). To determine the effects of knocking down caveolin-1 expression, healthy MSCs were treated with siRNA targeting caveolin-1 according to the manufacturer's instructions (Dharmacon).

TGFβ-activated monocytes = test: monocyte migration toward SDF-1; format: cell-based, human
Description: Migration experiments were performed using TGFβ-activated monocytes and 100 ng/ml of the chemokine SDF-1 as chemoattractant (Tourkina et al., 2011, Fibrogenesis Tissue Repair, 4:15). Cells were treated with the indicated concentrations of the indicated peptides. Cells that had migrated were counted in six high power fields per filter. Migration is expressed in terms of “Inhibition of Migration”. Each experiment included Control monocytes and the same monocytes treated with TGFβ which enhanced their rate of migration approximately three-fold. […] Intermediate degrees of inhibition were quantified on a linear basis.
To study the structure-activity relationship of CSD to identify an optimal version to be developed for treating fibrotic diseases in human patients, subdomains of CSD were tested for their ability to inhibit the migration of human monocytes. Monocytes from healthy subjects were used which, when activated using TGFβ, migrate at an enhanced rate similar to monocytes from SSc patients (Tourkina et al., 2011, Fibrogenesis Tissue Repair, 4:15).

[2] = tested on: Healthy AT MSCs differentiated into adipocytes; test: Healthy AT MSCs already differentiated into adipocytes, then treated ± TGFβ ± CSD, Western blotting; format: cell-based, human
Description: To induce MSCs or adipocytes into a profibrotic phenotype, the cells were cultured in the presence of TGFβ.
(§2) Adipogenic differentiation was induced by incubating cells for 3 cycles of 3 days in Adipocyte Induction Medium (Lonza) plus 1 day in Maintenance Medium. Adipogenic differentiation was analyzed by IHC and/or Western blotting using appropriate antibodies and by staining with an Oil Red 0 kit (Biovision) according to the manufacturer's instructions.
MSC cultures were rinsed with PBS. Lysis Buffer (20 mM Tris-HCl (pH 7.5)/1% NP-40/100 mM NaCl/5 mM EDTA/2 mM KCl) supplemented with 1 mM phenylmethylsulfonyl fluoride, protease inhibitor mixture Set V (Calbiochem), and phosphatase inhibitors (10 mM sodium pyrophosphate, 5 mM NaF, 10 mM beta-glycerophosphate, and 10 mM sodium orthovanadate) was added to the plates, the cells scraped into the buffer, frozen, thawed, and the extract clarified by centrifugation (10 min, 12,000 rpm, RT). The protein content of the supernatants was determined, sample buffer added, and the samples were boiled. 5 to 40 μg of protein was loaded per lane depending on the avidity of the primary antibody to be used for detection.

SSc AT MSCs = test: adipocyte induction of SSc AT MSCs ± CSD or scrambled peptide (IHC for ASMA and FABP4); format: cell-based, human; conditions: treatment during adipocyte induction
Description: MSCs from healthy and SSc donors were treated with adipocyte induction medium (AIM), from Lonza to induce adipogenesis.
as §2

bleomycin-treated mice [3] = test: bleomycin minipump mouse model, skin fibrosis (dermal thickness, FABP4 IHC); format: in vivo, C57BL/6 mice
From the text: as §1
The Pump Model (Lee R. et al., 2014, Am. J. Physio. Lung Cell. Mol. Physio. 306:L736-748) is used both to generate MSC donors and host mice receiving MSC therapy. Briefly; under isoflurane anesthesia, mini-osmotic pumps (ALZET 1007D; DURECT Corporation, Cupertino, Calif.) containing 100 μl of bleomycin (67 U/kg) or saline are implanted posterior to the scapulae of 8-10 week old C57BL/6 mice. […]
On day 24, under anesthesia the rib cage was opened, mice systemically perfused via the left ventricle with PBS, then further perfused with Z-Fix (Anatech). […] Lung tissue morphology was evaluated by the Ashcroft Method (Ashcroft T. et al., 1988, J. Clin. Pathol. 41:467-470). Skin tissue morphology was evaluated in terms of the thickness of the dermis and the subdermal adipose layer. Tissue sections were also analyzed by IHC using routine methods (Lee R. et al., 2014, Am. J. Physio. Lung Cell. Mol. Physio. 306:L736-748; Lee R. et al., 2014, Frontiers in Pharma. 5:140; Lee R. et al., 2015, Fibrogen. Tissue Repair, 8:11) and appropriate antibodies.

[4] = TGFβ after adipocyte differentiation

Compound	dose working in inhibiting fibrosis (animal model for ILD) [mg/kg/day]	effectiveness relative to pirfenidone in inhibiting fibrosis (animal model for ILD) [fold]	share of treated mice with beneficial effect on lung morphology (mice)	ASMA levels in the bleomycin-treated lung (bleomycin-treated mice [1])	enhanced ASMA expression in cells treated with TGFβ (Healthy AT MSCs; healthy MSCs + TGFβ)	baseline expression of ASMA (Healthy AT MSCs; healthy MSCs without TGFβ)	TGFβ-induced migration (TGFβ-activated monocytes; 50 pg/ml peptide)	inhibition of TGFβ-induced migration (TGFβ-activated monocytes; levels as low as 0.005 pg/ml)	AKT activation [2, 4]	FABP4 expression [2, 4]	fibrogenic effect of TGFβ: increased ASMA expression [2, 4]	fibrogenic effect of TGFβ: increased Col I expression [2, 4]	p38 activation [2, 4]	PPARγ expression ([2]; differentiated adipocytes)	caveolin-1 expression ([2]; differentiated adipocytes)	number of ASMA+ cells (SSc AT MSCs)	number of FABP4+ cells (SSc AT MSCs)	loss of the intradermal adipose layer (FABP4 staining) (bleomycin-treated mice [3])
Cc1ccc(=O)n(-c2ccccc2)c1 [pirfenidone, reference compound]	300																	
DGIWKASFTTFTVTKYWFYR-NH2 [CSD, caveolin-1 scaffolding domain peptide, amino acids 82-101 of caveolin-1]	1	300	greater than 50%	greatly decreased	inhibited	inhibited	decreased essentially to the uninduced level	Substantial inhibition	restored	did not restore	reversed	reversed	inhibited	Neither TGFβ nor CSD affected	Neither TGFβ nor CSD affected	decreased	increased	reversed
